Here are results for five compounds from article PMC6175411, “Reversible optical control of F1Fo‐ATP synthase using photoswitchable inhibitors” (Febs Letters, 2018).

In the test the target is T1, Yarrowia lipolytica F1Fo-ATP synthase (YF1Fo), monomeric (Yarrowia lipolytica, UniProt Q6C326+Q6C338+Q6CFT7).
T1 construct: gene ATP1; complete, genetically unmodified native F1Fo holoenzyme, monomeric form, solubilised in DDM from Y. lipolytica mitochondria; PEG precipitation, glycerol gradient, anion exchange; remaining Fo and peripheral stalk subunits also present; with ATP synthase subunit delta, mitochondrial; ATP synthase subunit epsilon, mitochondrial; ATP synthase subunit 9, mitochondrial (subunit c); ATP synthase subunit a
T1 sequence (Q6C326 25-536): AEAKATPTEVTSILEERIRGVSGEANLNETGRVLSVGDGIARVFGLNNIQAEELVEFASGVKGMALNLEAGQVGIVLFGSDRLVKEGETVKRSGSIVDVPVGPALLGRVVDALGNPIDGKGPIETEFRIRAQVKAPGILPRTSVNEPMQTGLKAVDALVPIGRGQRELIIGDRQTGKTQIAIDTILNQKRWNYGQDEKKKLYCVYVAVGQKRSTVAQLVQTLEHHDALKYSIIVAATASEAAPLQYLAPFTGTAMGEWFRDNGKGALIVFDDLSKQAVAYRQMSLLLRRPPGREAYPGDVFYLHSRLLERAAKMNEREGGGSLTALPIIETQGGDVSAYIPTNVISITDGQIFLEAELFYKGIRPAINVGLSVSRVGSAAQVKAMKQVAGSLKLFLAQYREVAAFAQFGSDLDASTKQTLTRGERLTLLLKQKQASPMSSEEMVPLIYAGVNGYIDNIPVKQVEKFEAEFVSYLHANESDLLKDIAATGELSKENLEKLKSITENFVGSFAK
T1 sequence (Q6CFT7 33-509): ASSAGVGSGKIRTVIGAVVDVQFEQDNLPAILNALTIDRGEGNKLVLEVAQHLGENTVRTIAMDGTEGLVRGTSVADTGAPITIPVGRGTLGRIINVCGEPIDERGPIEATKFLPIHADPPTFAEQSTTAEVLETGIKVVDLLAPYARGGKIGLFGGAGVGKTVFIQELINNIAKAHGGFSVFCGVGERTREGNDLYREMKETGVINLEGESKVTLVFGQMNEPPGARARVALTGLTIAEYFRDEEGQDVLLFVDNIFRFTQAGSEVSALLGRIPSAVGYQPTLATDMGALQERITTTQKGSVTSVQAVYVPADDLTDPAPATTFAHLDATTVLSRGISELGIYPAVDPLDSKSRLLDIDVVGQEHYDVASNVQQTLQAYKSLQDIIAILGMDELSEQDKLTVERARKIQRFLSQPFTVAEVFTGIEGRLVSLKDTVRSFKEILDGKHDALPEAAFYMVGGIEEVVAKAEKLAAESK
T1 sequence (Q6C338 22-293): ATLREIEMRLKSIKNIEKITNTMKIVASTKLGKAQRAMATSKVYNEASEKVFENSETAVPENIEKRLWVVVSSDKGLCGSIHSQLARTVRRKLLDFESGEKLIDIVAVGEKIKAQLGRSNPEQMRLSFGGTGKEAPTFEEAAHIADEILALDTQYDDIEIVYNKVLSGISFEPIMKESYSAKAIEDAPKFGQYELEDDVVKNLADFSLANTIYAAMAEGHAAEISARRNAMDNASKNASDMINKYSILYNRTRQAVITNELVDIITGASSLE
T1 sequence (Q6C877 25-162 partner): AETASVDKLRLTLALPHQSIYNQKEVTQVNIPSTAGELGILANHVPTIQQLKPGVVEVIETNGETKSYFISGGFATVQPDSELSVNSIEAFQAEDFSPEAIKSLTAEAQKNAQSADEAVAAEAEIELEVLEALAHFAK
T1 sequence (Q37695 whole entry partner): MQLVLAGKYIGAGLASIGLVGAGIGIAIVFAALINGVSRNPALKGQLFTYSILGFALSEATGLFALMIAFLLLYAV
Put plainly: malachite green ATP hydrolysis assay. Type of test: biochemical.

SMILES strings stand for the structures. A value given as a limit tells only on which side of the number the result lay.

The compound `Oc1ccc(/N=N/c2cc(O)cc(O)c2)cc1` [PIAS-1, 5‐((4‐hydroxyphenyl)diazenyl)benzene‐1,3‐diol] gave a half-maximal inhibitory concentration (IC50) of 140 ± 56.6 µM.

The compound `COc1cc(/N=N/c2ccc(O)cc2)cc(OC)c1` [PIAS-2, 4‐((3,5‐dimethoxyphenyl)diazenyl)phenol] gave a 50% inhibitory concentration (IC50) above 200 µM.

Regarding `COc1cc(/N=N/c2ccc(O)c(OC)c2)cc(OC)c1` [PIAS-3, 4‐((3,5‐dimethoxyphenyl)diazenyl)‐2‐methoxyphenol], the IC50 is above 200 µM.

With `Oc1cc(O)cc(/N=N/c2ccc(O)c(O)c2)c1` [PIAS-4, 4‐((3,5‐dihydroxyphenyl)diazenyl)benzene‐1,2‐diol], the 50% inhibitory concentration (IC50) was 14 ± 2.7 µM.

On to `Oc1ccc(/C=C/c2cc(O)cc(O)c2)cc1` [resveratrol], for which the IC50 worked out at 185 ± 17.7 µM.

The term IC50 denotes the concentration at which inhibition is half-maximal. Read a low IC50 as higher potency.
